These results are taken from patent US20220313656A1, “NEW CLASS OF ANTIBIOTICS HAVING LOW MIC-VALUES TOWARDS DIFFERENT STRAINS OF BACTERIA” (priority 2019, published 2022).

Assay in all cases: MIC, serial dilution method (CLSI)
The subject of one assay is S. aureus USA300. The format is cell-based, Staphylococcus aureus. As for the experimental part:
(§1) These inoculums were each in diluted 1:100 in Müller Hinton (MH) broth (Sigma, Copenhagen, Denmark). From the diluted inoculums 100 μl was transferred to each well in a 96-well plate and mixed with the compound to be MIC determined. The plate was incubated for 24 hours at 37° C. (without shaking). The MIC value was determined as the lowest concentration in which no bacterial growth could be visually detected. All MIC determinations were done in duplicates. […] Since all derivatives are new, no control strains (with reference MIC values) were available.

For the next assay, the system named is S. aureus CC398. The class given is cell-based, Staphylococcus aureus. As to the method: as §1
Another assay has as its system E. faecalis. The class given is cell-based, Enterococcus faecalis. As to the method: as §1
In another assay the test system is E. coli APEC O2. The class given is cell-based, Escherichia coli. As to the method:
as §1

The next assay concerns E. faecium. The format is cell-based, Enterococcus faecium. As to the method: as §1
Assay [1] relates to Staphylococus pseudintermedius. The class given is cell-based, Staphylococcus pseudintermedius. As to the method: as §1
The subject of a further assay is Listeria monocytogenes. The format is cell-based. As to the method:
as §1

Another assay deals with Bacillus cereus. The class given is cell-based. As for the experimental part: as §1
A further assay relates to Streptococcus equi. The class given is cell-based. As for the experimental part:
as §1

The next assay relates to Salmonella enteritidis. The class given is cell-based. As for the experimental part:
as §1

The mark [2] stands for this setting: Staphylococcus aureus, USA300, 24 h, read-out: MIC.
[3] abbreviates: Staphylococcus aureus, MRSA, 24 h, read-out: MIC.
[4] abbreviates: Enterococcus faecalis, 24 h, read-out: MIC.
Setting [5] is: Escherichia coli, APECO2, 24 h, read-out: MIC.
Setting [6] is: Enterococcus faecium, 24 h, read-out: MIC.
[7] abbreviates: Staphylococcus pseudintermedius, 24 h, read-out: MIC.
[8] abbreviates: Salmonella enterica, ENTERITIDIS, 24 h, read-out: MIC.
[9] abbreviates: S. aureus USA300, MH broth, 24 hours at 37° C., set to 256 if growth at […].
Where [10] appears, read: S. aureus CC398 (MRSA strain), MH broth, 24 hours at 37° C., set to 256 if growth at […].
The mark [11] stands for this setting: E. faecalis, MH broth, 24 hours at 37° C., set to 256 if growth at […].
Where [12] appears, read: E. coli APEC O2, MH broth, 24 hours at 37° C., set to 256 if growth at […].
[13] abbreviates: E. faecium, MH broth, 24 hours at 37° C., set to 256 if growth at […].
[14] abbreviates: Staphylococus pseudintermedius, MH broth, 24 hours at 37° C., set to 256 if growth at […].
Where [15] appears, read: MH broth, 24 hours at 37° C., set to 256 if growth at […].
Setting [16] is: Salmonella enteritidis, MH broth, 24 hours at 37° C., set to 256 if growth at […].

Read-outs that look alike come from different tables or passages of the source.

By MIC is commonly meant the smallest concentration in the dilution series that meets the test's criterion for growth inhibition. As for `CC(CN1c2ccccc2Sc2ccccc21)N(C)C.Cl` (stereo not drawn) [Compound S12, N,N-dimethyl-1-(10H-phenothiazin-10-yl)propan-2-amine hydrochloride, reference compound], the MIC in the assay on S. aureus USA300 (setting [2]) worked out at 128 µg/mL; in the assay with S. aureus CC398 (setting [3]) it was 128 µg/mL; with E. faecalis (setting [4]), 128 µg/mL; in the assay with E. coli APEC O2 (setting [5]), 128 µg/mL; in the assay on E. faecium (setting [6]), 256 µg/mL; in assay [1] (setting [7]) it was 64 µg/mL. Besides, the minimal inhibitory concentration (MIC) in the assay on Listeria monocytogenes (24 h, read-out: MIC) amounted to 128 µg/mL; with Bacillus cereus (24 h, read-out: MIC), 256 µg/mL; in the assay with Streptococcus equi (24 h, read-out: MIC), 64 µg/mL; with Salmonella enteritidis (setting [8]) it was 256 µg/mL.

Turning to `CCCCCCCCCCCC[N+]1(C)CCCCC1CCN1c2ccccc2Sc2ccc(SC)cc21.[Br-]` (stereo not drawn) [Compound S29, 1-dodecyl-1-methyl-2-(2-(2-(methylthio)-10H-phenothiazin-10-yl)ethyl)piperidin-1-ium bromide], the MIC turned out to be 4 µg/mL in the assay on S. aureus USA300 (setting [2]); 2 µg/mL in the assay on S. aureus CC398 (setting [3]); 4 µg/mL in the assay on E. faecalis (setting [4]); 64 µg/mL with E. coli APEC O2 (setting [5]); 2 µg/mL in the assay with E. faecium (setting [6]); 2 µg/mL in [1] (setting [7]). Also, the MIC was 2 µg/mL in the assay with Listeria monocytogenes (24 h, read-out: MIC); 2 µg/mL in the assay on Bacillus cereus (24 h, read-out: MIC); 2 µg/mL with Streptococcus equi (24 h, read-out: MIC); 64 µg/mL in the assay with Salmonella enteritidis (setting [8]).

Turning to `CN(C)CC/C=C1/c2ccccc2Sc2ccc(Cl)cc21.Cl` [Compound S34, (Z)-3-(2-chloro-9H-thioxanthen-9-ylidene)-N,N-dimethylpropan-1-amine hydrochloride, reference compound], the MIC in the assay with S. aureus USA300 (setting [2]) turned out to be 32 µg/mL; with S. aureus CC398 (setting [3]), 32 µg/mL; in the assay on E. faecalis (setting [4]) it was 32 µg/mL; in the assay with E. coli APEC O2 (setting [5]), 64 µg/mL; in the assay on E. faecium (setting [6]) it was 32 µg/mL; in assay [1] (setting [7]) it was 32 µg/mL. For the same compound, the MIC with Listeria monocytogenes (24 h, read-out: MIC) turned out to be 32 µg/mL; in the assay with Bacillus cereus (24 h, read-out: MIC) it was 64 µg/mL; in the assay on Streptococcus equi (24 h, read-out: MIC), 256 µg/mL; in the assay with Salmonella enteritidis (setting [8]) it was 128 µg/mL.

In the case of `CC[N+](C)(C)C(C)CN1c2ccccc2Sc2ccccc21.[Br-]` (stereo not drawn) [Compound S14, N-ethyl-N,N-dimethyl-1-(10H-phenothiazin-10-yl)propan-2-aminium bromide], the MIC in the assay on S. aureus USA300 (setting [2]) was 128 µg/mL; in the assay with S. aureus CC398 (setting [3]), 64 µg/mL; with E. faecalis (setting [4]), 256 µg/mL; with E. coli APEC O2 (setting [5]) it was 256 µg/mL; in the assay with E. faecium (setting [6]) it was 128 µg/mL; in assay [1] (setting [7]), 32 µg/mL. The MIC amounted to 32 µg/mL in the assay on Listeria monocytogenes (24 h, read-out: MIC); 256 µg/mL in the assay with Bacillus cereus (24 h, read-out: MIC); 32 µg/mL in the assay on Streptococcus equi (24 h, read-out: MIC); 256 µg/mL with Salmonella enteritidis (setting [8]).

For the compound `CCOC(=O)CC[N+]1(C)CCCCC1CCN1c2ccccc2Sc2ccc(SC)cc21` (stereo not drawn) [Thioridazine 3-Ethoxy-3-oxo-1-propyl], the MIC with S. aureus USA300 (setting [9]) is 32 µg/mL; in the assay on S. aureus CC398 (setting [10]) it was 32 µg/mL; in the assay with E. faecalis (setting [11]) it was 32 µg/mL; against E. coli APEC O2 (setting [12]), 256 µg/mL; in the assay on E. faecium (setting [13]) it was 32 µg/mL; in assay [1] (setting [14]), 16 µg/mL. Further, the MIC was 4 µg/mL with Listeria monocytogenes (setting [15]), 4 µg/mL with Bacillus cereus (setting [15]), 8 µg/mL with Streptococcus equi (setting [15]) and 128 µg/mL with Salmonella enteritidis (setting [16]).

On to `C=CC[N+]1(C)CCCCC1CCN1c2ccccc2Sc2ccc(SC)cc21.[Br-]` (stereo not drawn) [Compound S42, 1-allyl-1-methyl-2-(2-(2-(methylthio)-10H-phenothiazin-10-yl)ethyl)piperidin-1-ium bromide], for which the MIC worked out at 4 µg/mL with S. aureus USA300 (setting [2]); 4 µg/mL in the assay on S. aureus CC398 (setting [3]); 16 µg/mL in the assay with E. faecalis (setting [4]); 256 µg/mL with E. coli APEC O2 (setting [5]); 16 µg/mL in the assay with E. faecium (setting [6]); 4 µg/mL in assay [1] (setting [7]). Also, the MIC in the assay on Listeria monocytogenes (24 h, read-out: MIC) worked out at 32 µg/mL; in the assay on Bacillus cereus (24 h, read-out: MIC) it was 64 µg/mL; with Streptococcus equi (24 h, read-out: MIC) it was 4 µg/mL; in the assay on Salmonella enteritidis (setting [8]), 128 µg/mL.

Consider `C[N+](C)(CCC=C1c2ccccc2Sc2ccc(Cl)cc21)Cc1ccccc1` [Chlorprothixene Benzyl], for which the MIC in the assay on S. aureus USA300 (setting [9]) was 4 µg/mL; with S. aureus CC398 (setting [10]), 2 µg/mL; in the assay with E. faecalis (setting [11]) it was 16 µg/mL; against E. coli APEC O2 (setting [12]), 64 µg/mL; against E. faecium (setting [13]), 16 µg/mL; in [1] (setting [14]) it was 2 µg/mL. Also, the MIC came to 32 µg/mL in the assay on Listeria monocytogenes (setting [15]), 16 µg/mL against Bacillus cereus (setting [15]), 2 µg/mL in the assay with Streptococcus equi (setting [15]) and 64 µg/mL in the assay with Salmonella enteritidis (setting [16]).

Regarding `CCCCC[N+](C)(C)C(C)CN1c2ccccc2Sc2ccccc21.[Br-]` (stereo not drawn) [Compound S17, N-(1-(10H-phenothiazin-10-yl)propan-2-yl)-N,N-dimethylpentan-1-aminium bromide], the minimal inhibitory concentration (MIC) came to 8 µg/mL in the assay on S. aureus USA300 (setting [2]); 32 µg/mL in the assay with S. aureus CC398 (setting [3]); 32 µg/mL with E. faecalis (setting [4]); 64 µg/mL in the assay on E. coli APEC O2 (setting [5]); 16 µg/mL in the assay with E. faecium (setting [6]); 4 µg/mL in assay [1] (setting [7]). The MIC in the assay with Listeria monocytogenes (24 h, read-out: MIC) is 8 µg/mL; in the assay with Bacillus cereus (24 h, read-out: MIC), 8 µg/mL; in the assay with Streptococcus equi (24 h, read-out: MIC) it was 4 µg/mL; in the assay with Salmonella enteritidis (setting [8]), 64 µg/mL.

Consider `CC[N+](C)(C)CC/C=C1/c2ccccc2Sc2ccc(Cl)cc21.[Br-]` [Compound S36, (Z)-3-(2-chloro-9H-thioxanthen-9-ylidene)-N-ethyl-N,N-dimethylpropan-1-aminium bromide], for which the MIC in the assay with S. aureus USA300 (setting [2]) worked out at 32 µg/mL; in the assay on S. aureus CC398 (setting [3]), 32 µg/mL; in the assay with E. faecalis (setting [4]), 128 µg/mL; with E. coli APEC O2 (setting [5]) it was 256 µg/mL; in the assay on E. faecium (setting [6]), 128 µg/mL; in assay [1] (setting [7]), 32 µg/mL. Moreover, the MIC was determined as 128 µg/mL in the assay on Listeria monocytogenes (24 h, read-out: MIC); 64 µg/mL in the assay with Bacillus cereus (24 h, read-out: MIC); 256 µg/mL in the assay on Streptococcus equi (24 h, read-out: MIC); 256 µg/mL with Salmonella enteritidis (setting [8]).

For the compound `CSc1ccc2c(c1)N(CCC1CCCC[N+]1(C)Cc1ccccc1)c1ccccc1S2` (stereo not drawn) [Thioridazine Benzyl], the MIC against S. aureus USA300 (setting [9]) stood at 2 µg/mL; against S. aureus CC398 (setting [10]) it was 2 µg/mL; in the assay with E. faecalis (setting [11]) it was 8 µg/mL; in the assay with E. coli APEC O2 (setting [12]), 128 µg/mL; in the assay with E. faecium (setting [13]), 8 µg/mL; in [1] (setting [14]) it was 2 µg/mL. In addition, the MIC came out at 4 µg/mL in the assay with Listeria monocytogenes (setting [15]), 2 µg/mL in the assay on Bacillus cereus (setting [15]), 2 µg/mL against Streptococcus equi (setting [15]) and 64 µg/mL in the assay with Salmonella enteritidis (setting [16]).

In the case of `CC(C)CC[N+](C)(C)CC/C=C1/c2ccccc2Sc2ccc(Cl)cc21.[Br-]` [Compound S37, (Z)—N-(3-(2-chloro-9H-thioxanthen-9-ylidene)propyl)-N,N,3-trimethylbutan-1-aminium bromide], the MIC in the assay with S. aureus USA300 (setting [2]) is 4 µg/mL; in the assay on S. aureus CC398 (setting [3]), 4 µg/mL; in the assay on E. faecalis (setting [4]) it was 16 µg/mL; in the assay on E. coli APEC O2 (setting [5]), 64 µg/mL; in the assay with E. faecium (setting [6]) it was 16 µg/mL; in assay [1] (setting [7]) it was 4 µg/mL. Further, the MIC in the assay on Listeria monocytogenes (24 h, read-out: MIC) worked out at 8 µg/mL; in the assay with Bacillus cereus (24 h, read-out: MIC), 8 µg/mL; with Streptococcus equi (24 h, read-out: MIC) it was 4 µg/mL; with Salmonella enteritidis (setting [8]), 64 µg/mL.

Turning to `C=CC[N+](C)(C)CCCN1c2ccccc2Sc2ccc(Cl)cc21.[Br-]` [Compound S40, N-(3-(2-chloro-10H-phenothiazin-10-yl)propyl)-N,N-dimethylprop-2-en-1-aminium bromide], the MIC with S. aureus USA300 (setting [2]) stood at 16 µg/mL; in the assay on S. aureus CC398 (setting [3]), 16 µg/mL; with E. faecalis (setting [4]), 64 µg/mL; with E. coli APEC O2 (setting [5]), 256 µg/mL; with E. faecium (setting [6]), 64 µg/mL; in [1] (setting [7]) it was 8 µg/mL. Further, the MIC with Listeria monocytogenes (24 h, read-out: MIC) came out at 32 µg/mL; in the assay with Bacillus cereus (24 h, read-out: MIC), 64 µg/mL; in the assay with Streptococcus equi (24 h, read-out: MIC), 8 µg/mL; in the assay on Salmonella enteritidis (setting [8]), 128 µg/mL.
